The assay addresses T1, recombinant human NaV1.8 stably transfected HEK cells (Homo sapiens, UniProt Q9Y5Y9).
T1 construct: expressed in transfected cells; host or cells: HEK cells, stably transfected
Description: Compound profiling on NaV1.8, human NaV1.8 cell line, SyncroPatch384PE automated patch clamp assay (Example 102, first set of compounds, Table 16). The class given is cell-based. The conditions noted are these: human NaV1.8 HEK cells, Table 16 (first set of compounds). An outline of the steps:
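IC50s come from two read-outs: resting-state block (P1, 10 mV step from −120 mV) and inactivated-state block (P2, after 10 s at −40 mV), scaled between DMSO and 250 μM tetracaine. Compounds (20–0.001 μM final, 1:3 steps) were applied for 5 min, 15 s sweeps. Cells kept at 30 °C the day before.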
For orientation: The patch-clamp technique gives a direct electrical read-out from membranes.

The mark [1] stands for this setting: inactivated state block (P2 measurement), read-out: P2IC50.
[2] abbreviates: resting state block (P1 measurement), read-out: P1IC50.

Where two headings read alike, the source gives them in different places.

T1 sequence (Q9Y5Y9 whole entry): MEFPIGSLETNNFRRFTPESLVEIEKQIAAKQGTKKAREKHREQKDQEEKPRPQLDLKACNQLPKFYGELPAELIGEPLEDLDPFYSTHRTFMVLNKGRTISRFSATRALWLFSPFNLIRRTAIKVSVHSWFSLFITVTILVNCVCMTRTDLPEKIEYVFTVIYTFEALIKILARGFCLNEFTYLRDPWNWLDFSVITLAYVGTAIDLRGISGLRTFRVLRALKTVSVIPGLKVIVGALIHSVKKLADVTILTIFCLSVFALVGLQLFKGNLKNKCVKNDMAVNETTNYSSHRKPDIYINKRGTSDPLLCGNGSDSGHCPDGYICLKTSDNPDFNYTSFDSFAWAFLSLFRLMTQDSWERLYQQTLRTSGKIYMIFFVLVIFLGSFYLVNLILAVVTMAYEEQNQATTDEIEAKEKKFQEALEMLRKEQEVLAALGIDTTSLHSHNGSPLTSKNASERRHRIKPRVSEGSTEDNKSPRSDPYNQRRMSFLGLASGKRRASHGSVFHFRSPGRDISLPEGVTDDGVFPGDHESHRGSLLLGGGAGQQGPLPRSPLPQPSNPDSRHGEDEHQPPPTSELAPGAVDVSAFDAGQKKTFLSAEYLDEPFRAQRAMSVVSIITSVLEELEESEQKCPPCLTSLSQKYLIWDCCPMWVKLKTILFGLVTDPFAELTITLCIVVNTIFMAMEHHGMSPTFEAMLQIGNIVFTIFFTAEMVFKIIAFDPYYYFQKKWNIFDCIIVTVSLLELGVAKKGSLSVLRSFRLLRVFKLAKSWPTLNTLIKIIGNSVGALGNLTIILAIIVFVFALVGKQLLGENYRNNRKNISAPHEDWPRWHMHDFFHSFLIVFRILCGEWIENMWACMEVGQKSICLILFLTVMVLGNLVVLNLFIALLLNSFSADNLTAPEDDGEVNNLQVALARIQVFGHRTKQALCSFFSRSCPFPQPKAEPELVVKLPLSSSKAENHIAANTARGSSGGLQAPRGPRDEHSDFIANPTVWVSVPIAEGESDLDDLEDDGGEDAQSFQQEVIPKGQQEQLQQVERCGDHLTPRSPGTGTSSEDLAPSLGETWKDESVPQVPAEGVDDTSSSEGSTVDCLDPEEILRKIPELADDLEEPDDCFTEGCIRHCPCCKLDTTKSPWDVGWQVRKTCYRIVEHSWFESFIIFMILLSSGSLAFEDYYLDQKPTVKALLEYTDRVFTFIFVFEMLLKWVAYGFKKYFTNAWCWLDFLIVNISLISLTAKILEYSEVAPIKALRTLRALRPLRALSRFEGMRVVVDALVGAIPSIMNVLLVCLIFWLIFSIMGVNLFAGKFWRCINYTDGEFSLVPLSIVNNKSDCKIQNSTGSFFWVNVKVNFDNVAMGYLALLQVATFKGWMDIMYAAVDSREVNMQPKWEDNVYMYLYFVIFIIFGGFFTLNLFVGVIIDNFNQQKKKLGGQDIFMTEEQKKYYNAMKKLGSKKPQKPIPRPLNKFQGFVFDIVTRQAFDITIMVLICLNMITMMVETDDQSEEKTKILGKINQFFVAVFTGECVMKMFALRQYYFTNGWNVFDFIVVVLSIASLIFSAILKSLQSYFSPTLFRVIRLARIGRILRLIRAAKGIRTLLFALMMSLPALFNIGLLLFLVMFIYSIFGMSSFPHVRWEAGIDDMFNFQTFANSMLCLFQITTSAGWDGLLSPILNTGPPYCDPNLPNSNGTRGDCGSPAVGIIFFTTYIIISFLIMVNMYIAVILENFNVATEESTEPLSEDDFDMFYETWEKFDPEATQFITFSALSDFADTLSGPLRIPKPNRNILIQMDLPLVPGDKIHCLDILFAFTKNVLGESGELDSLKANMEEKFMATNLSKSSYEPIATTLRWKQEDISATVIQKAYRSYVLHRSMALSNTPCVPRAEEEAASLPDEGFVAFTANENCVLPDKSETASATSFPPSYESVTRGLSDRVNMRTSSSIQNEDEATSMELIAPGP

Regarding `Cc1nc(C#N)ccc1Oc1ncc(C(F)(F)F)cc1C(=O)Nc1cccc(S(C)(=O)=O)c1` [Compound 1693], the IC50 under setting [1] was not above 20 nM and the IC50 under setting [2] was not above 20 nM.
Turning to `COc1cc(C#N)ccc1Oc1nnc(-c2ccc(C)cc2)c(C)c1C(=O)Nc1cccc(S(C)(=N)=O)c1` (stereo not drawn) [Compound 1450, 3-(4-cyano-2-methoxy-phenoxy)-5-methyl-N-[3-(methylsulfonimidoyl)phenyl]-6-(p-tolyl)pyridazine-4-carboxamide], the IC50 under setting [1] is not above 20 nM and the IC50 under setting [2] is not above 20 nM.
Turning to `Cc1cc(F)ccc1Oc1nnc(C(F)(F)F)c(C2CC2)c1C(=O)Nc1cccc([S@@](C)(=N)=O)c1` [Compound 1519, (S)-5-cyclopropyl-3-(4-fluoro-2-methylphenoxy)-N-(3-(S-methylsulfonimidoyl)phenyl)-6-(trifluoromethyl)pyridazine-4-carboxamide], the IC50 is, setting by setting: under setting [1], 20 to 40 nM; under setting [2], 20 to 40 nM.
As for `Cc1nc(OC2CCC2)ccc1Oc1ncc(C(F)(F)F)cc1C(=O)Nc1ccc(C(N)=O)cc1` [Compound 1566, N-(4-carbamoylphenyl)-2-[[6-(cyclobutoxy)-2-methyl-3-pyridyl]oxy]-5-(trifluoromethyl)pyridine-3-carboxamide], the IC50 runs as follows: under setting [1], 200 to 500 nM; under setting [2], 200 to 500 nM.
For the compound `COc1cc(C#N)ccc1Oc1nc(C(F)(F)F)nc(C)c1C(=O)Nc1cccc(S(C)(=N)=O)c1` (stereo not drawn) [Compound 1743, 4-(4-cyano-2-methoxy-phenoxy)-6-methyl-N-[3-(methylsulfonimidoyl)phenyl]-2-(trifluoromethyl)pyrimidine-5-carboxamide], the IC50 runs as follows: under setting [1], not above 20 nM; under setting [2], not above 20 nM.
In the case of `CS(=N)(=O)c1cccc(NC(=O)c2cc(C(F)(F)F)cnc2OC23CC(C(F)(F)F)(C2)C3)c1` (stereo not drawn) [Compound 1633], the IC50 by setting is: under setting [1], 200 to 500 nM; under setting [2], 40 to 200 nM.
For `Cc1c(C(F)(F)F)nnc(Oc2ccc(OC(C)C)c(F)c2F)c1C(=O)Nc1cccc(S(C)(=O)=O)c1` [Compound 1424] the same measures were not above 20 nM and not above 20 nM.
Regarding `CS(=O)(=O)c1cccc(NC(=O)c2cc(C(F)(F)F)cnc2Oc2ccn3ccnc3c2)c1` [Compound 1597], the IC50 runs as follows: under setting [1], 200 to 500 nM; under setting [2], 200 to 500 nM.
In the case of `Cc1c(Oc2nnc(C(F)(F)F)c(C)c2C(=O)Nc2cccc(S(C)(=O)=O)c2)ccc(Cl)c1F` [Compound 1421], the IC50 is, setting by setting: under setting [1], not above 20 nM; under setting [2], not above 20 nM.
Turning to `Cc1cc(C#N)ccc1Oc1nnc(C(F)(F)F)c(C)c1C(=O)Nc1cccc([S@](C)(=N)=O)c1` [Compound 1526, 3-(4-cyano-2-methylphenoxy)-N-{3-[(R)-imino(methyl)oxo-λ^6-sulfanyl]phenyl}-5-methyl-6-(trifluoromethyl)pyridazine-4-carboxamide], the IC50 by setting is: under setting [1], not above 20 nM; under setting [2], not above 20 nM.
Turning to `Cc1cc(F)ccc1Oc1ncc(Cl)c(C)c1C(=O)Nc1cccc(S(C)(=N)=O)c1` (stereo not drawn) [Compound 1558, 5-chloro-2-(4-fluoro-2-methylphenoxy)-4-methyl-N-(3-(S-methylsulfonimidoyl)phenyl)nicotinamide], the IC50 under setting [1] was not above 20 nM and the IC50 under setting [2] was not above 20 nM.
On to `COc1cc(F)c(F)cc1Oc1ncc(C(F)(F)F)cc1C(=O)Nc1cccc(S(C)(=N)=O)c1` (stereo not drawn) [Compound 1617], for which the IC50 runs as follows: under setting [1], 20 to 40 nM; under setting [2], 20 to 40 nM.
Turning to `Cc1cc(F)ccc1Oc1nnc(C(F)(F)F)c(C)c1C(=O)Nc1cccc(S(N)(=O)=O)c1` [Compound 1466, 3-(4-fluoro-2-methylphenoxy)-5-methyl-N-(3-sulfamoylphenyl)-6-(trifluoromethyl)pyridazine-4-carboxamide], the IC50 is not above 20 nM under setting [1] and not above 20 nM under setting [2].
In the case of `COc1c(Oc2ncc(C(F)(F)F)cc2C(=O)NC23CC(C(N)=O)(C2)C3)ccc(F)c1F` [Compound 1722, N-(3-carbamoyl-1-bicyclo[1.1.1]pentanyl)-2-(3,4-difluoro-2-methoxy-phenoxy)-5-(trifluoromethyl)pyridine-3-carboxamide], the IC50 lay within 200 to 500 nM under setting [1] and 200 to 500 nM under setting [2].
As to `CSc1cccc(NC(=O)c2cc(C#N)cnc2Oc2ccc(F)cc2C)c1` [Compound 1579], the IC50 under setting [1] was 200 to 500 nM and the IC50 under setting [2] lay within 200 to 500 nM.
For the compound `COc1ccc(-c2nnc(Oc3ccc(C#N)cc3OC)c(C(=O)Nc3cccc([S@](C)(=N)=O)c3)c2C)cc1` [Compound 1535, 3-(4-cyano-2-methoxyphenoxy)-N-{3-[(R)-imino(methyl)oxo-λ^6-sulfanyl]phenyl}-6-(4-methoxyphenyl)-5-methylpyridazine-4-carboxamide], the IC50 is 20 to 40 nM under setting [1] and 20 to 40 nM under setting [2].
Turning to `Cc1cc(F)ccc1Oc1nnc(C(C)O)c(C)c1C(=O)Nc1cccc(S(C)(=N)=O)c1` (stereo not drawn) [Compound 1547, 3-(4-fluoro-2-methyl-phenoxy)-6-(1-hydroxyethyl)-5-methyl-N-[3-(methylsulfonimidoyl)phenyl]pyridazine-4-carboxamide], the IC50 under setting [1] was in the range of 200 to 500 nM and the IC50 under setting [2] is 200 to 500 nM.
On to `COc1cc(C#N)ccc1Oc1nnc(C2CC2(F)F)c(C)c1C(=O)Nc1cccc([S@@](C)(=N)=O)c1` (stereo partly drawn) [Compound 1528, 3-(4-cyano-2-methoxyphenoxy)-6-(2,2-difluorocyclopropyl)-N-{3-[(S)-imino(methyl)oxo-λ^6-sulfanyl]phenyl}-5-methylpyridazine-4-carboxamide], for which the IC50 by setting is: under setting [1], 40 to 200 nM; under setting [2], 40 to 200 nM.
Take `CS(=O)(=O)c1cccc(NC(=O)c2cc(C(F)(F)F)cnc2OC2CCC(F)(F)CC2)c1` [Compound 1660]: the IC50 under setting [1] lay in the range of 40 to 200 nM and the IC50 under setting [2] was in the range of 40 to 200 nM.
With `COc1cc(F)c(Oc2ncc(C(F)(F)F)cc2C(=O)Nc2cccc(S(C)(=N)=O)c2)cc1F` (stereo not drawn) [Compound 1637], the IC50 runs as follows: under setting [1], 200 to 500 nM; under setting [2], 200 to 500 nM.
With `COc1nc(Br)ccc1Oc1ncc(C(F)(F)F)cc1C(=O)Nc1cccc(S(C)(=O)=O)c1` [Compound 1603], the IC50 was not above 20 nM under setting [1] and not above 20 nM under setting [2].
`COc1ncc(-c2nnc(Oc3ccc(C#N)cc3OC)c(C(=O)Nc3cccc(S(C)(=N)=O)c3)c2C)s1` (stereo not drawn) [Compound 1461, 3-(4-cyano-2-methoxy-phenoxy)-6-(2-methoxythiazol-5-yl)-5-methyl-N-[3-(methylsulfonimidoyl)phenyl]pyridazine-4-carboxamide; formic acid]: the IC50 runs as follows: under setting [1], 40 to 200 nM; under setting [2], 200 to 500 nM.
For the compound `COc1nc(C2CC2)ccc1Oc1nnc(C(F)(F)F)c(C)c1C(=O)Nc1cccc(S(C)(=N)=O)c1` (stereo not drawn) [Compound 1550, 3-[(6-cyclopropyl-2-methoxy-3-pyridyl)oxy]-5-methyl-N-[3-(methylsulfonimidoyl)phenyl]-6-(trifluoromethyl)pyridazine-4-carboxamide], the IC50 was not above 20 nM under setting [1] and not above 20 nM under setting [2].
`COC(=O)C12CC(NC(=O)c3cc(C(F)(F)F)cnc3Oc3ccc(F)c(F)c3OC)(C1)C2` [Compound 1679]: the IC50 is 200 to 500 nM under setting [1] and 200 to 500 nM under setting [2].
As for `COc1cc(C#N)ccc1Oc1nnc(-c2ccc(C)cc2)c(C)c1C(=O)Nc1cccc([S@](C)(=N)=O)c1` [Compound 1529, 3-(4-cyano-2-methoxyphenoxy)-N-{3-[(R)-imino(methyl)oxo-λ6-sulfanyl]phenyl}-5-methyl-6-(4-methylphenyl)pyridazine-4-carboxamide], the IC50 is, setting by setting: under setting [1], not above 20 nM; under setting [2], not above 20 nM.
Regarding `COc1c(Oc2ncc(C#N)cc2C(=O)Nc2cccc(S(C)(=N)=O)c2)ccc(F)c1F` (stereo not drawn) [Compound 1723, 5-cyano-2-(3,4-difluoro-2-methoxy-phenoxy)-N-[3 (methylsulfonimidoyl)phenyl]pyridine-3-carboxamide], the IC50 under setting [1] lay within 20 to 40 nM and the IC50 under setting [2] lay within 20 to 40 nM.
`Cc1c(C(F)(F)F)nnc(Oc2ccc(OC(F)(F)F)cc2F)c1C(=O)Nc1cccc(S(C)(=N)=O)c1` (stereo not drawn) [Compound 1495, 3-[2-fluoro-4-(trifluoromethoxy)phenoxy]-5-methyl-N-[3-(methylsulfonimidoyl)phenyl]-6-(trifluoromethyl)pyridazine-4-carboxamide]: the IC50 reads like this: under setting [1], not above 20 nM; under setting [2], not above 20 nM.
Turning to `NC(=O)c1cccc(NC(=O)c2cc(C(F)(F)F)cnc2Oc2cnc(C(F)(F)F)nc2)c1` [Compound 1695], the IC50 under setting [1] fell in the range of 200 to 500 nM and the IC50 under setting [2] lay within 200 to 500 nM.
Regarding `Cc1cc(F)ccc1Oc1nnc(C(F)(F)F)c(-c2cnn(C)c2)c1C(=O)Nc1cccc([S@@](C)(=N)=O)c1` [Compound 1521, (S)-3-(4-fluoro-2-methylphenoxy)-5-(1-methyl-1H-pyrazol-4-yl)-N-(3-(S-methylsulfonimidoyl)phenyl)-6-(trifluoromethyl)pyridazine-4-carboxamide], the IC50 reads like this: under setting [1], 200 to 500 nM; under setting [2], 200 to 500 nM.
Take `Cc1ccc2c(Oc3ncc(C(F)(F)F)cc3C(=O)Nc3cccc(S(C)(=O)=O)c3)cccc2n1` [Compound 1625]: the IC50 was in the range of 200 to 500 nM under setting [1] and 200 to 500 nM under setting [2].
For the compound `CS(=O)(=O)c1cccc(NC(=O)c2cc(C(F)(F)F)cnc2OCC23CC(F)(C2)C3)c1` [Compound 1629], the IC50 was in the range of 40 to 200 nM under setting [1] and 40 to 200 nM under setting [2].
Regarding `CS(=N)(=O)c1cccc(NC(=O)c2cc(C(F)(F)F)cnc2OC2CC3C(C2)C3(F)F)c1` (stereo not drawn) [Compound 1672], the IC50 by setting is: under setting [1], 200 to 500 nM; under setting [2], 200 to 500 nM.
As to `NC(=O)c1cccc(NC(=O)c2cc(C(F)(F)F)cnc2OC2CC3C(C2)C3(F)F)c1` (stereo not drawn) [Compound 1677], the IC50 reads like this: under setting [1], 200 to 500 nM; under setting [2], 200 to 500 nM.
